Tests used:
[1] = Anxiolytic activity, Vogel test; type: in vivo; conditions: 30 mg/kg per os
Method: (§1) Results obtained on the products of the present invention are presented in the following and are expressed in percentage of increase by reference to an untreated control, with the product being administered per os at a dose of 30 mg/kg.

[2] = Anxiolytic activity, X-labyrinth test (elevated plus maze); type: in vivo; conditions: 30 mg/kg per os
Method: as §1

Lipoxygenase = biological target: T1, Lipoxygenase (Rattus norvegicus, UniProt P12527); assay: Inhibition of Lipoxygenase: inhibition of leukotriene B4 production by polymorphonuclear cells stimulated by Ionophore A 23 187; type: cell-based; conditions: polymorphonuclear peritoneal cell suspensions
T1 construct: suspensions of polymorphonuclear peritonea of rates stimulated by means of the Ionophore A 23 187; endogenous in cells; host or cells: rat peritoneal polymorphonuclear cells
T1 sequence (P12527 1-673): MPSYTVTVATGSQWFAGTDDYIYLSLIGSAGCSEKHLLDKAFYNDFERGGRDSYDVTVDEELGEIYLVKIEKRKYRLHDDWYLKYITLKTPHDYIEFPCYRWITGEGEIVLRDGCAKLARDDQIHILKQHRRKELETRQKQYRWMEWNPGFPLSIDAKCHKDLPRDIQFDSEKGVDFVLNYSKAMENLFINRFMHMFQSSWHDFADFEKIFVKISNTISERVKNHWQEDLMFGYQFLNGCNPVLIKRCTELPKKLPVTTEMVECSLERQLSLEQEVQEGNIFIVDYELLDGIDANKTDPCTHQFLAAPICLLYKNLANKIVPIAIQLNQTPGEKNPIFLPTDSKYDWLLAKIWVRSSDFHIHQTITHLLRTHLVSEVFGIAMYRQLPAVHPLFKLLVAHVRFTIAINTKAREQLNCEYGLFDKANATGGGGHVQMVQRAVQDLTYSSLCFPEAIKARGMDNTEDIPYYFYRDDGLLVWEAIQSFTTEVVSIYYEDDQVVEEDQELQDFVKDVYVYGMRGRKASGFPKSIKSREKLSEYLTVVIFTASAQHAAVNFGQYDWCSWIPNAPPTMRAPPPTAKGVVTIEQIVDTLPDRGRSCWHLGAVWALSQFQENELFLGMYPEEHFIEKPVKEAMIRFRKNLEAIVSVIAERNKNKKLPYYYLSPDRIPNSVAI

What does the source list for COc1nn(-c2cccc(C(F)(F)F)c2)ccc1=O [Compound 9, 1-Metatrifluoromethylphenyl-1,4-dihydro-3-methoxy-4-oxopyridazine]?
Vogel test: percentage of increase by reference to an untreated control [1]: 52%; X-labyrinth test: percentage of increase by reference to an untreated control [2]: 165%

Which IC50 (Lipoxygenase) does the source give for Cc1cc(=O)c(OCc2ccc3ccccc3n2)nn1-c1cccc(C(F)(F)F)c1 [Compound 11, 1-Metatrifluoromethylphenyl-1,4-dihydro-3-(2-quinolylmethoxy)-4-oxo-6-methylpyridazine] here?
The IC50 was 1100 nM.

For C=CCOc1nn(-c2cccc(C(F)(F)F)c2)c(C)cc1=O [Compound 5, 1-Metatrifluoromethylphenyl-1,4-dihydro-3-allyloxy-4-oxo-6-methylpyridazine], which “Vogel test: percentage of increase by reference to an untreated control” value (“Vogel test: percentage of increase” for short) [1] is on record?
Its value is 48%.

What does the source list for COc1nn(-c2cccc(C(F)(F)F)c2)c(C)cc1=O [Compound 2, 1-Metatrifluoromethylphenyl-1,4-dihydro-3-methoxy-4-oxo-6-methylpyridazine]?
Vogel test: percentage of increase by reference to an untreated control [1]: 95%; X-labyrinth test: percentage of increase by reference to an untreated control [2]: 95%

For Cc1cc(=O)c(OCc2ccccc2)nn1-c1cccc(C(F)(F)F)c1 [Compound 6, 1-Metatrifluoromethylphenyl-1,4-dihydro-3-benzyloxy-4-oxo-6-methylpyridazine], which “Vogel test: percentage of increase” value [1] is on record?
The value was 98%.

What about the “X-labyrinth test: percentage of increase by reference to an untreated control” value [2] of the same compound?
Its value is 18%.

What about the IC50 (Lipoxygenase) of the same compound?
Its IC50 is 1250 nM.

For O=c1ccn(-c2cccc(C(F)(F)F)c2)nc1OCc1ccccc1 [Compound 10, 1-Metatrifluoromethylphenyl-1,4-dihydro-3-benzyloxy-4-oxopyridazine], which “Vogel test: percentage of increase” value [1] is on record?
Its value is 38%.

And the IC50 (Lipoxygenase)?
Its IC50 is 25000 nM.
